Results taken from ChEMBL document CHEMBL5550147, “Supramolecular prodrug of SN38 based on endogenous albumin and SN38 prodrug modified with semaglutide side chain to improve the tumor distribution” (Bioorg Med Chem, 2024).
Calls of active or inactive are those of the source. The rule behind the calls is not given here.

How the values were obtained:
[1] = Cmax in BALB/c mouse at 28 mg/kg, iv measured for 1 to 72 hrs by HPLC analysis; format: ADME, organism-based; conditions: in vivo, time 1-72 hrs
[2] = Drug accumulation in lung of nude mouse xenografted with human HT-29 cells assessed as fold change in free SN38 at 28 mg/kg, iv measured for 50 hrs by HPLC analysis relative to Irinotecan; format: ADME, organism-based; conditions: in vivo
[3] = Drug accumulation in human HT-29 cells xenografted in nude mouse assessed as fold increase at 28 mg/kg, iv measured for 6 hrs by HPLC analysis relative to Irinotecan; format: ADME, organism-based; conditions: in vivo
[4] = AUC (0 to infinity) in BALB/c mouse at 28 mg/kg, iv measured for 1 to 72 hrs by HPLC analysis; format: ADME, organism-based; conditions: in vivo, time 1-72 hrs
HT-29 [5] = test: Cytotoxicity against human HT-29 cells incubated for 48 hrs by MTT assay; format: functional, cell-based
[6] = Stability in mouse plasma assessed as half life by HPLC analysis; format: ADME, cell-free
[7] = Drug accumulation in human HT-29 cells xenografted in nude mouse assessed as fold increase at 28 mg/kg, iv measured for 1 hr by HPLC analysis relative to Irinotecan; format: ADME, organism-based; conditions: in vivo
[8] = Toxicity in nude mouse xenografted with human HT-29 cells assessed as body weight change at 28 mg/kg, iv measured for 35 days; format: organism-based; conditions: in vivo, 840 h, time 35 day
A549 = test: Cytotoxicity against human A549 cells incubated for 48 hrs by MTT assay; format: functional, cell-based
HT-29 [9] = test: Anti-tumor activity against human HT-29 cells xenografted in nude mouse at 28 mg/kg, iv measured for 35 days relative to control; format: functional; conditions: HT-29, 840 h, time 35 day, read-out: TGI
[10] = Drug accumulation in human HT-29 cells xenografted in nude mouse assessed as fold increase at 28 mg/kg, iv measured for 24 hrs by HPLC analysis relative to Irinotecan; format: ADME, organism-based; conditions: in vivo
[11] = Stability of compound in PBS at pH 7.4 at 50 uM by HPLC analysis; format: physicochemical; conditions: buffer, pH 7.4, 50 µM
HepG2 = test: Cytotoxicity against human HepG2 cells incubated for 48 hrs by MTT assay; format: functional, cell-based
[12] = Volume of distribution in BALB/c mouse at 28 mg/kg, iv measured for 1 to 72 hrs by HPLC analysis; format: ADME, organism-based; conditions: in vivo, time 1-72 hrs
[13] = Drug distribution in lung of nude mouse xenografted with human HT-29 cells at 17.9 mg/kg, iv measured for 1 to 48 hrs by HPLC analysis; format: ADME, organism-based; conditions: in vivo, time 1-48 hrs
[14] = Drug accumulation in human HT-29 cells xenografted in nude mouse assessed as fold increase at 28 mg/kg, iv measured for 48 hrs by HPLC analysis relative to Irinotecan; format: ADME, organism-based; conditions: in vivo
[15] = Stability of compound in PBS at pH 6.5 at 50 uM by HPLC analysis; format: physicochemical; conditions: buffer, pH 6.5, 50 µM
[16] = Prodrug conversion in mouse plasma assessed as drug release incubated for 24 hrs by HPLC analysis; format: ADME, cell-free
MIA PaCa-2 = test: Cytotoxicity against human MIA PaCa-2 cells incubated for 48 hrs by MTT assay; format: functional, cell-based
MG-63 = test: Cytotoxicity against human MG-63 cells incubated for 48 hrs by MTT assay; format: functional, cell-based
[17] = Half life in BALB/c mouse at 28 mg/kg, iv measured for 1 to 72 hrs by HPLC analysis; format: ADME, organism-based; conditions: in vivo, time 1-72 hrs
[18] = Clearance in BALB/c mouse at 28 mg/kg, iv measured for 1 to 72 hrs by HPLC analysis; format: ADME, organism-based; conditions: in vivo, time 1-72 hrs
HT-29 [19] = test: Anti-tumor activity against human HT-29 cells xenografted in nude mouse at 15 mg/kg, iv measured for 35 days relative to control; format: functional; conditions: HT-29, 840 h, time 35 day, read-out: TGI
[20] = Drug distribution in lung of nude mouse xenografted with human HT-29 cells at 15 mg/kg, iv measured for 1 to 48 hrs by HPLC analysis; format: ADME, organism-based; conditions: in vivo, time 1-48 hrs

SMILES: CCc1c2c(nc3ccc(O)cc13)-c1cc3c(c(=O)n1C2)COC(=O)[C@@]3(CC)OC(=O)CNC(=O)CCCCCCCCCCCCCCCCC(=O)O
- Cmax [1]: 3670 ng/mL
- fold change (FC) [2]: 0.3
- fold change (FC) [3]: 2.1
- AUC [4]: 23130 ng·h/mL
- Activity (HT-29 [5]): Active
- half-life [6]: 14 h
- fold change (FC) [7]: 2.5
- Activity [8]: Non-Toxic
- Activity (A549): Active
- inhibition in vivo at 28 mg/kg (HT-29 [9]): 71%
- fold change (FC) [10]: 1.6
- Stability [11]: Stable
- Activity (HepG2): Active
- Vd [12]: 0.191 L
- Drug uptake [13]: Active
- fold change (FC) [14]: 7.8
- Stability [15]: Stable
- Drug metabolism [16]: Metabolite_Detected
- Activity (MIA PaCa-2): Active
- Activity (MG-63): Active
- half-life [17]: 4.37 h
- CL [18]: 0.517 mL/min/kg

SMILES: CCc1c2c(nc3ccc(OC(=O)N4CCC(N5CCCCC5)CC4)cc13)-c1cc3c(c(=O)n1C2)COC(=O)[C@]3(O)CC [IRINOTECAN]
- inhibition in vivo at 15 mg/kg (HT-29 [19]): 62.3%
- Drug uptake [20]: Active
